What was measured:
Type in all cases: in vivo, human
[1] = tested on: subjects with mild-to-moderate Alzheimer's disease; assay: Phase 2a Clinical Study A: ADAS-cog (11-item) total score; details: for ADAS-cog (11-Item) Total Score Observed Mean (SD) Final: final evaluation, 12-week treatment; for efficacy in treatment of core symptoms of Alzheimer's disease in human patients (summary in words): Phase 2a study, dose not stated
Protocol: (§1) A Phase 2a proof-of-concept (POC) study in subjects with mild-to-moderate dementia of Alzheimer type was conducted. The study was a randomized, double-blind, placebo- and active-controlled, multicenter study designed to evaluate the efficacy and safety of Compound A (ABT-126) in subjects diagnosed with mild-to-moderate Alzheimer's disease, defined as meeting National Institute of Neurological and Communicative Disorders and Stroke/Alzheimer's Disease and Related Disorders Association (NINCDS/ADRDA) criteria for probable AD. […] Subjects were randomized in an equal ratio to one of four treatment groups (placebo, 5 mg Compound A, 25 mg Compound A, or donepezil) for a 12-week treatment period. The primary efficacy measure was the Alzheimer's Disease Assessment Scale—cognitive subscale (ADAS-Cog). Subjects were generally in good health and any chronic medical conditions were stable during the time of screening. Subjects were not taking other medication for Alzheimer's disease.
(§2) The study was a Phase 2, randomized, double-blind, placebo- and active-controlled, multicenter study designed to evaluate the dose-response relationship and safety of two doses of Compound A in subjects diagnosed with mild to moderate AD, defined as meeting NINCDS/ADRDA criteria for probable AD.
(§3) The study consisted of a Screening Period of up to 28 days, a 12-week treatment period, and a post-treatment period. The screening period consisted of three visits: Screening Visit 1, Screening Visit 2, and Day −1. Upon completion of Day −1 procedures, eligible subjects were randomized through an Interactive Voice Response/Interactive Web-Based (IVR/IWB) system. Subjects were randomized in an equal ratio to one of four treatment groups (placebo, 5 mg Compound A, 25 mg Compound A, or donepezil).
(§4) Each subject was instructed to take study drug once-daily in the morning for 12 weeks. Subjects randomized to donepezil took 5 mg donepezil QD for the first 4 weeks and began 10 mg donepezil QD at Week 4 through the remainder of the study. The subject and investigator were blinded to the treatment assignment throughout the study.
(§5) Subjects completed 4 visits during the treatment period at Week 2, Week 4, Week 8 and Week 12. Subjects returned to the study site for a follow-up visit approximately 2 weeks after the Week 12 or premature discontinuation visit for a safety evaluation. In addition, study site personnel contacted each subject's caregiver by telephone approximately 30 days after the subject's last dose of study drug to ascertain the subject's safety status.
(§6) The primary efficacy measure was the Alzheimer's Disease Assessment Scale-cognitive subscale (ADAS-cog). The ADAS-cog was designed to assess the cognitive impairments most common in AD. The ADAS-cog is a subscale of the ADAS, which focuses on cognitive functioning and memory. Two versions were used in the study: an 11-item version and an expanded (13-item) version. The 11-item version of the ADAS-cog was the primary endpoint measure in this study. ADAS-Cog (13-item) was administered throughout the study and the primary efficacy variable was considered the change from baseline to final evaluation on the ADAS-cog total score (11-item).
The 11-item ADAS-cog includes the following tests: Word Recall, Commands, Constructional Praxis, Naming Objects and Fingers, Ideational Praxis, Orientation, Word Recognition, Remembering Test Instructions, Comprehension of Spoken Language, Spoken Language Ability, and Word Finding Difficulty. The total score of the 11-item ADAS-cog ranges from 0 to 70, with a higher score representing greater impairment.
The primary efficacy variable was the change from baseline to the final observation on the ADAS-cog (11-item) total score. The primary efficacy analysis was carried out using an ANCOVA model with treatment and study site as the main effects and baseline score as the covariate. […]

[2] = tested on: subjects with mild-to-moderate Alzheimer's disease; assay: Phase 2a Clinical Study A: ADAS-cog (13-item) total score; details: for ADAS-cog (13-Item) Total Score Observed Mean (SD) Final: final evaluation, 12-week treatment
Protocol: as §1, §2, §3, §4, §6
The 13-item ADAS-cog is comprised of the 11-item ADAS-cog with two additional items (Delayed Word Recall and a Number Cancellation Test) that are designed to assess attention and concentration. The Delayed Word Recall Test (range from 0 to 10) was an addition to the Word Recall Test to enhance sensitivity of the instrument in assessing cognition functioning on patients with mild AD. The Number Cancellation Test (range from 0 to 5) was reliable and sensitive to a broad range of dementia severity, and was recommended as a useful addition to the 11-item ADAS-cog. The total score of the 13-item ADAS-cog ranges from 0 to 85, with a higher score representing greater impairment. The ADAS-cog (13-item) was administered by a certified rater at Screening Visit 1, Screening Visit 2, and Day-1, as well as Weeks 4, 8, and 12 during the study.

[3] = tested on: subjects with mild-to-moderate Alzheimer's disease; assay: Phase 2a Clinical Study A: safety and tolerability
Protocol: as §1, §2, §4, §5

[4] = 5 mg QD, ANCOVA, baseline to final evaluation
[5] = 25 mg QD, ANCOVA, baseline to final evaluation

c1ccc(-c2nnc(O[C@@H]3C4CC5C[C@H]3CN(C5)C4)s2)cc1 [Compound A, (4s)-4-(5-phenyl-1,3,4-thiadiazol-2-yloxy)-1-azatricyclo[3.3.1.1^3,7]decane]
ADAS-cog (11-Item) Total Score Difference From Placebo LS Mean (SE) of Difference [1, 4]: −0.08
ADAS-cog (11-Item) Total Score LS Mean (SE) of Change [1, 4]: −0.76 (0.64)
ADAS-cog (11-Item) Total Score Observed Mean (SD) change ([1]; 5 mg QD, Change to Week 4): −0.36 (4.01)
ADAS-cog (11-Item) Total Score Observed Mean (SD) change ([1]; 5 mg QD, Change to Week 8): −0.58 (4.83)
ADAS-cog (11-Item) Total Score Observed Mean (SD) change ([1]; 5 mg QD, Change to Week 12): −1.01 (5.50)
ADAS-cog (11-Item) Total Score Difference From Placebo LS Mean (SE) of Difference ([1]; 5 mg QD, MMRM, Week 4): 0.03 (0.65)
ADAS-cog (11-Item) Total Score LS Mean (SE) of Change from Baseline ([1]; 5 mg QD, MMRM, Week 4): −0.06 (0.47)
ADAS-cog (11-Item) Total Score Difference From Placebo LS Mean (SE) of Difference ([1]; 5 mg QD, MMRM, Week 8): 0.07 (0.81)
ADAS-cog (11-Item) Total Score LS Mean (SE) of Change from Baseline ([1]; 5 mg QD, MMRM, Week 8): −0.49 (0.57)
ADAS-cog (11-Item) Total Score Difference From Placebo LS Mean (SE) of Difference ([1]; 5 mg QD, MMRM, Week 12): 0.03 (0.90)
ADAS-cog (11-Item) Total Score LS Mean (SE) of Change from Baseline ([1]; 5 mg QD, MMRM, Week 12): −0.80 (0.64)
ADAS-cog (11-Item) Total Score Observed Mean (SD) Final ([1]; 5 mg QD): 24.30 (10.50)
cognition relative to placebo, ADAS-cog (11-item) MMRM (in words) ([1]; 5 mg, over the 12 weeks): no improvement in cognition relative to placebo
cognition relative to placebo, ADAS-cog (11-item) MMRM (in words) ([1]; 25 mg): trend toward statistical significance at Weeks 4 and 8 in cognitive improvement
ADAS-cog (11-Item) Total Score Difference From Placebo LS Mean (SE) of Difference [1, 5]: −1.19
ADAS-cog (11-Item) Total Score LS Mean (SE) of Change [1, 5]: −1.86 (0.64)
ADAS-cog (11-Item) Total Score Observed Mean (SD) change ([1]; 25 mg QD, Change to Week 4): −1.18 (4.29)
ADAS-cog (11-Item) Total Score Observed Mean (SD) change ([1]; 25 mg QD, Change to Week 8): −1.94 (5.12)
ADAS-cog (11-Item) Total Score Observed Mean (SD) change ([1]; 25 mg QD, Change to Week 12): −2.12 (5.53)
ADAS-cog (11-Item) Total Score Difference From Placebo LS Mean (SE) of Difference ([1]; 25 mg QD, MMRM, Week 4): −0.84 (0.65)
ADAS-cog (11-Item) Total Score LS Mean (SE) of Change from Baseline ([1]; 25 mg QD, MMRM, Week 4): −0.94 (0.46)
ADAS-cog (11-Item) Total Score Difference From Placebo LS Mean (SE) of Difference ([1]; 25 mg QD, MMRM, Week 8): −1.11 (0.82)
ADAS-cog (11-Item) Total Score LS Mean (SE) of Change from Baseline ([1]; 25 mg QD, MMRM, Week 8): −1.67 (0.58)
ADAS-cog (11-Item) Total Score Difference From Placebo LS Mean (SE) of Difference ([1]; 25 mg QD, MMRM, Week 12): −1.14 (0.91)
ADAS-cog (11-Item) Total Score LS Mean (SE) of Change from Baseline ([1]; 25 mg QD, MMRM, Week 12): −1.97 (0.65)
ADAS-cog (11-Item) Total Score Observed Mean (SD) Final ([1]; 25 mg QD): 26.61 (12.09)
efficacy (in words) ([1]; 25 mg dose, 12 weeks): Evidence for efficacy
efficacy in treatment of core symptoms of Alzheimer's disease in human patients (summary in words) [1]: signal for efficacy
efficacy in treatment of core symptoms of Alzheimer's disease in human patients (summary in words) ([1]; listed as ABT-126): statistically significant efficacy compared to placebo
ADAS-cog (13-Item) Total Score Difference From Placebo LS Mean (SE) of Difference [2, 4]: −0.13 (1.03)
ADAS-cog (13-Item) Total Score LS Mean (SE) of Change [2, 4]: −0.90 (0.73)
ADAS-cog (13-Item) Total Score Observed Mean (SD) change ([2]; 5 mg QD, Change to Week 4): −0.67 (4.31)
ADAS-cog (13-Item) Total Score Observed Mean (SD) change ([2]; 5 mg QD, Change to Week 8): −0.76 (5.88)
ADAS-cog (13-Item) Total Score Observed Mean (SD) change ([2]; 5 mg QD, Change to Week 12): −1.20 (6.36)
ADAS-cog (13-Item) Total Score Difference From Placebo LS Mean (SE) of Difference ([2]; 5 mg QD, MMRM, Week 4): −0.30 (0.73)
ADAS-cog (13-Item) Total Score LS Mean (SE) of Change from Baseline ([2]; 5 mg QD, MMRM, Week 4): −0.30 (0.52)
ADAS-cog (13-Item) Total Score Difference From Placebo LS Mean (SE) of Difference ([2]; 5 mg QD, MMRM, Week 8): −0.29 (0.95)
ADAS-cog (13-Item) Total Score LS Mean (SE) of Change from Baseline ([2]; 5 mg QD, MMRM, Week 8): −0.64 (0.67)
ADAS-cog (13-Item) Total Score Difference From Placebo LS Mean (SE) of Difference ([2]; 5 mg QD, MMRM, Week 12): 0.15 (1.04)
ADAS-cog (13-Item) Total Score LS Mean (SE) of Change from Baseline ([2]; 5 mg QD, MMRM, Week 12): −0.99 (0.73)
ADAS-cog (13-Item) Total Score Observed Mean (SD) Final ([2]; 5 mg QD): 35.92 (12.07)
ADAS-cog (13-Item) Total Score Difference From Placebo LS Mean (SE) of Difference [2, 5]: −1.83 (1.05)
ADAS-cog (13-Item) Total Score LS Mean (SE) of Change [2, 5]: −2.60 (0.75)
ADAS-cog (13-Item) Total Score Observed Mean (SD) change ([2]; 25 mg QD, Change to Week 4): −2.38 (4.72)
ADAS-cog (13-Item) Total Score Observed Mean (SD) change ([2]; 25 mg QD, Change to Week 8): −2.78 (6.05)
ADAS-cog (13-Item) Total Score Observed Mean (SD) change ([2]; 25 mg QD, Change to Week 12): −2.89 (6.77)
ADAS-cog (13-Item) Total Score Difference From Placebo LS Mean (SE) of Difference ([2]; 25 mg QD, MMRM, Week 4): −2.13 (0.75)
ADAS-cog (13-Item) Total Score LS Mean (SE) of Change from Baseline ([2]; 25 mg QD, MMRM, Week 4): −2.13 (0.53)
ADAS-cog (13-Item) Total Score Difference From Placebo LS Mean (SE) of Difference ([2]; 25 mg QD, MMRM, Week 8): −2.06 (0.98)
ADAS-cog (13-Item) Total Score LS Mean (SE) of Change from Baseline ([2]; 25 mg QD, MMRM, Week 8): −2.42 (0.70)
ADAS-cog (13-Item) Total Score Difference From Placebo LS Mean (SE) of Difference ([2]; 25 mg QD, MMRM, Week 12): −1.61 (1.08)
ADAS-cog (13-Item) Total Score LS Mean (SE) of Change from Baseline ([2]; 25 mg QD, MMRM, Week 12): −2.74 (0.77)
ADAS-cog (13-Item) Total Score Observed Mean (SD) Final ([2]; 25 mg QD): 38.08 (13.81)
tolerability in subjects with AD ([3]; 5 mg and 25 mg QD (doses up to 25 mg QD), 12 weeks): generally well tolerated
changes in vital signs, ECG parameters or laboratory assessments ([3]; 5 mg and 25 mg QD, 12 weeks): no consistent clinically meaningful changes
serious adverse events considered by the investigator to be related ([3]; 5 mg and 25 mg QD, 12 weeks): none that were considered by the investigator to be related
dose dependence of adverse events ([3]; 25 mg group): no evidence for a dose-dependent increase in adverse events
